# Experimental data published in US10618887B2 (Sunesis Pharmaceuticals, Inc., priority 2012, dated 2020).
# Tests used:
# [1] = target: T1, human PXR (Homo sapiens, UniProt O75469); assay: PXR nuclear receptor activation reporter gene assay in human DPX2 cells; format: cell-based; conditions: 24 hr treatment
# T1 construct: expressed in transfected cells; host or cells: DPX2 tumor cell line
# T1 sequence (O75469 1-434): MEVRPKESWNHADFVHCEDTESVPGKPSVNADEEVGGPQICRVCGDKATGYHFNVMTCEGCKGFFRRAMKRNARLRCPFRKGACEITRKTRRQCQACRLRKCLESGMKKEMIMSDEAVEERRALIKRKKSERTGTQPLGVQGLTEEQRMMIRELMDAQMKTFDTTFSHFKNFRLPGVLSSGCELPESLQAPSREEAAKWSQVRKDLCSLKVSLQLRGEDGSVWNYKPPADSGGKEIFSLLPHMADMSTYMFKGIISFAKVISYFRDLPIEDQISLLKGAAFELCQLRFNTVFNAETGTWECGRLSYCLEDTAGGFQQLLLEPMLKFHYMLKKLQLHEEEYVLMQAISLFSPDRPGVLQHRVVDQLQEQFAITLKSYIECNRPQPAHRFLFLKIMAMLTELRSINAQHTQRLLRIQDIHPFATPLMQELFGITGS
# Excerpt: Study Protocol to Determine Activation of the PXR Nuclear Receptor in Human DPX2 Cells
# Based on this pathway of CYP3A4 induction, cell-based PXR reporter gene assay is commonly used to screen new molecular entities (NMEs) in early drug discovery stage, for their potential to induce CYP3A4 (Luo G, et al.; Drug Metab Dispos. 2002 July; 30(7):795-804.) Studies were designed to evaluate the effect of new molecular entities (NMEs) on the activation of human PXR in DPX2 cells. Cell lines stably transfected with the PXR nuclear receptor and corresponding response elements were seeded into 96-well plates. Twenty-four hr after seeding, cells were treated with 6 distinct concentrations of NMEs in triplicate wells (see below), and cells then returned to the incubator for an additional 24 hr. At the end of this incubation period, the number of viable cells/well were determined using Promega's Cell Titer Fluor cytotoxicity assay. Following this assay, Promega's ONE-Glo was added to the same wells and reporter gene activity assessed.
# The test system consisted of the stably transformed DPX2 tumor cell line plated on 96-well microtiter plates. An expression vector harboring the PXR nuclear receptor plus the appropriate enhancers and promoters linked to the luciferase reporter gene have been stably integrated into these tumor cell lines. Receptor activation was assessed by monitoring reporter gene activity, and by comparing the results to vehicle-treated cells. Positive controls consist of cells treated with 6 different concentrations (0.1, 0.5, 1, 5, 10, and 20 μM) of rifampicin. In this manner, compounds activating PXR can be easily and rapidly identified. Since stably-integrated cell lines were used, it is possible to observe from 3- to 70-fold receptor activation.
# Data processed using MS-Excel was calculated as the mean (n=3) and % CV of the fold PXR activation relative to vehicle-treated cells at each of the 6 different doses. All activation data was normalized to the number of viable cells/well. Results were also expressed as a percentage of the response given by the appropriate positive control at a 10 μM dose. EC50 and Emax values were derived for test compounds that give receptor activation using nonlinear regression of typical log dose-response curves (Prism V5.0c, GraphPad Software, San Diego, Calif.).
# d) New Molecular Entities (NMEs): Test Compounds were Tested at 0.05, 0.1, 0.5, 1, 2.5, and 10 μM
# [2] = target: T2, BTK (Homo sapiens, UniProt Q06187); assay: In vitro BTK kinase assay: BTK-POLYGAT-LS assay; format: biochemical; conditions: ATP 10 uM, polyGAT 100 nM, BTK 0.25 nM, 30 minutes; read-out: IC50 against BTK (polyGAT assay)
# T2 construct: purchased Upstate 14-552
# T2 sequence (Q06187 whole entry): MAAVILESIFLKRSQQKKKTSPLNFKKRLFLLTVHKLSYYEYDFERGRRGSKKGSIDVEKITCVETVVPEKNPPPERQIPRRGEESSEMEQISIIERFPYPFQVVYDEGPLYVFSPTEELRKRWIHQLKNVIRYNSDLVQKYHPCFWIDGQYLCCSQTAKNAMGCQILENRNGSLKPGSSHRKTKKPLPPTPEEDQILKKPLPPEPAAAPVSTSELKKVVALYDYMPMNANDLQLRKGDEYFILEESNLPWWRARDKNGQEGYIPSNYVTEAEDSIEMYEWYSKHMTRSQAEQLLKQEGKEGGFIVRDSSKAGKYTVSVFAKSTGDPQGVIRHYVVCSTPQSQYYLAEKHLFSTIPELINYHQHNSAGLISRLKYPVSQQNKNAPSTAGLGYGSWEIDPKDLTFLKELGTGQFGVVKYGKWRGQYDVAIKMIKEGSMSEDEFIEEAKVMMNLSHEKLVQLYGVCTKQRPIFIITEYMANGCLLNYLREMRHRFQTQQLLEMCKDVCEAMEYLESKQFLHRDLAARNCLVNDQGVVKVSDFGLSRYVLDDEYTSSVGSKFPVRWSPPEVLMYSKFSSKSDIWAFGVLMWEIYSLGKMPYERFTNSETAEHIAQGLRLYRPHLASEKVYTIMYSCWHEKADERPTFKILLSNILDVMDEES
# Description: In vitro BTK kinase assay: BTK-POLYGAT-LS ASSAY. The purpose of the BTK in vitro assay was to determine compound potency against BTK through the measurement of IC50. Compound inhibition was measured after monitoring the amount of phosphorylation of a fluorescein-labeled polyGAT peptide (Invitrogen PV3611) in the presence of active BTK enzyme (Upstate 14-552), ATP, and inhibitor. The BTK kinase reaction was done in a black 96 well plate (costar 3694). For a typical assay, a 24 uL aliquot of an ATP/peptide master mix (final concentration; ATP 10 uM, polyGAT 100 nM) in kinase buffer (10 mM Tris-HCl pH 7.5, 10 mM MgCl2, 200 uM […], 5 mM DTT, 0.01% Triton X-100, and 0.2 mg/ml casein) was added to each well. Next, 1 uL of a 4-fold, 40× compound titration in 100% DMSO solvent was added, followed by adding 15 uL of BTK enzyme mix in 1× kinase buffer (with a final concentration of 0.25 nM). The assay was incubated for 30 minutes before being stopped with 28 uL of a 50 mM EDTA solution. Aliquots (5 uL) of the kinase reaction were transferred to a low volume white 384 well plate (Corning 3674), and 5 uL of a 2× detection buffer (Invitrogen PV3574, with 4 nM Tb-PY20 antibody, Invitrogen PV3552) was added. The plate was covered and incubated for 45 minutes at room temperature. Time resolved fluorescence (TRF) on Molecular Devices M5 (332 nm excitation; 488 nm emission; 518 nm fluorescein emission) was measured. IC50 values were calculated using a four parameter fit with 100% enzyme activity determined from the DMSO control and 0% activity from the EDTA control.
# [3] = target: T3, hERG (human ether-à-go-go-related gene) potassium channel (Homo sapiens, UniProt Q12809); assay: FastPatch hERG inhibition assay (QPatch HT, HEK293 cells stably transfected with hERG cDNA); format: cell-based; conditions: for IC50: HEK293 cells, automated patch clamp, IC50 estimated from hERG inhibition data
# T3 construct: host or cells: HEK293
# T3 sequence (Q12809 whole entry): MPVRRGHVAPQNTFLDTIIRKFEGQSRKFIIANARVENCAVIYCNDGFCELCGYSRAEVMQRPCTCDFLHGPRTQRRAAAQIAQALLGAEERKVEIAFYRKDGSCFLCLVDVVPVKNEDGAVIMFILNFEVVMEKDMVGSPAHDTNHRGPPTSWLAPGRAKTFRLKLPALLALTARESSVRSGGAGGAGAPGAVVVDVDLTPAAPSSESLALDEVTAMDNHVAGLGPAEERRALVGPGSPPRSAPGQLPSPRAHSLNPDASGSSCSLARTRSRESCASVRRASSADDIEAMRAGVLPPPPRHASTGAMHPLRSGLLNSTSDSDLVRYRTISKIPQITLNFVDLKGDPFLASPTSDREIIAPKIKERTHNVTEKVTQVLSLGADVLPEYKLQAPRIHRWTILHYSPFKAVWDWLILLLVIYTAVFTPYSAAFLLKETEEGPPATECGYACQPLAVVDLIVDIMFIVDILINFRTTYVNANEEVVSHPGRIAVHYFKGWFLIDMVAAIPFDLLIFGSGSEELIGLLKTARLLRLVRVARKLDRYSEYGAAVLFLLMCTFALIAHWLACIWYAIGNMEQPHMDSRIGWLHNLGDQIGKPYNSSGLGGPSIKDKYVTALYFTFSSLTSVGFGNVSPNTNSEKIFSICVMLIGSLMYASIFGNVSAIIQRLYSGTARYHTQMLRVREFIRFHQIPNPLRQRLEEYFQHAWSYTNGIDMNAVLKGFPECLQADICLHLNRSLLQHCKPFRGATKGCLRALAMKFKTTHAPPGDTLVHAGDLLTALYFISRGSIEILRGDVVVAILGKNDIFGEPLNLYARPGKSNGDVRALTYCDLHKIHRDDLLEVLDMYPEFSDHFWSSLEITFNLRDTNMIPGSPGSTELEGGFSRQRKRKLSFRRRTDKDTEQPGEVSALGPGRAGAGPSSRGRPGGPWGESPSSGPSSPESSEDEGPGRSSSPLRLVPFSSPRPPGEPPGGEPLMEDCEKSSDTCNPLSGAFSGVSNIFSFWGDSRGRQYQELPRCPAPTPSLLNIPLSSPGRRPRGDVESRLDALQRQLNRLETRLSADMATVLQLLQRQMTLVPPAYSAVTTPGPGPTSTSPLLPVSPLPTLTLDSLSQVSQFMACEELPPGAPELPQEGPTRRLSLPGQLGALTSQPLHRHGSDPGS
# Excerpt: (§1) Protocol for FastPatch hERG Inhibition Assay:
# (§2) The cardiac potassium channel, hERG, is responsible for a rapid delayed rectifier current (IKr) in human ventricle and inhibition of IKr is the most common cause of cardiac action potential prolongation by non-cardiac drugs (see, e.g., Weirich and Antoni, Basic Res. Cardiol., 93, Suppl. 1, 125-32, 1998; Yap and Camm, Clin. Exp. Allergy, 29, Suppl. 3, 174-81, 1999). Increased action potential duration has been cited as a factor in causing prolongation of the QT interval that has been associated with a dangerous ventricular arrhythmia, torsade de pointes (Brown and Rampe, Pharmaceutical News, 7, 15-20, 2000).
# (§3) The in vitro effects of provided compounds was investigated on the hERG (human ether-à-go-go-related gene) potassium channel current (a surrogate for IKr, the rapidly activating, delayed rectifier cardiac potassium current) expressed in human embryonic kidney (HEK293) cells stably transfected with hERG cDNA. Cells were placed in HEPES-buffered physiological saline solution in a glass-lined 96-well plate and loaded with appropriate amounts of test and control solutions for a duration of a 3-minute exposure at each concentration. Test compound was diluted in 0.3% DMSO. An automated parallel patch clamp system, QPatch HT (Sophion Bioscience A/S, Denmark), was used to evaluate at various concentrations (e.g., 10 μM). The IC50 values was estimated based on the hERG inhibition data. The study was performed at ChanTest (14656 Neo Parkway, Cleveland, Ohio). The QPatch screen is further described by Janzen and Bernasconi (eds.), High Throughput Screening, Methods and Protocols, Second Edition, vol. 565, chapter 10, pg. 209-223, 2009.
# [4] = target: T4, hERG potassium channel (Homo sapiens, UniProt Q12809); assay: as above; format: cell-based; conditions: human, HEK293 cells stably transfected with hERG cDNA; 10 uM, HEK293 cells, automated patch clamp
# T4 construct: host or cells: HEK293
# T4 sequence (Q12809 whole entry): as above
# Excerpt: as §1, §2, §3
smiles,measurement,setting,value
"NC(=O)[C@H]1CCN(c2ncnc(N)c2F)C[C@@H]1N1CCC[C@@H](Nc2cc(Cl)cc(C(F)(F)F)c2)C1=O [Compound I-1, (3R,3′R,4′S)-1′-(6-amino-5-fluoropyrimidin-4-yl)-3-((3-chloro-5-(trifluoromethyl)phenyl)amino)-2-oxo-[1,3′-bipiperidine]-4′-carboxamide]",PXR % induction (relative to 10 uM rifampin),[1],62%
same,IC50,[2],0.73 nM
same,IC50,[3],15600 nM
NC(=O)[C@H]1CCN(c2ncnc(N)c2F)C[C@@H]1N1CCC[C@@H](Nc2cc(F)cc(Cl)c2)C1=O [Compound I-2],PXR % induction (relative to 10 uM rifampin),[1],42%
same,IC50,[2],0.68 nM
same,IC50,[3],30000 nM
"CN(C)C(=O)[C@H]1CCN(c2ncnc(N)c2F)C[C@@H]1N1CCC[C@@H](Nc2cc(Cl)cc(C(F)(F)F)c2)C1=O [Compound I-3, (3R,3′R,4′S)-1′-(6-amino-5-fluoropyrimidin-4-yl)-3-((3-chloro-5-(trifluoromethyl)phenyl)amino)-N,N-dimethyl-2-oxo-[1,3′-bipiperidine]-4′-carboxamide]",PXR % induction (relative to 10 uM rifampin),[1],47%
same,IC50,[2],2.07 nM
same,IC50,[3],14600 nM
CNC(=O)[C@H]1CCN(c2ncnc(N)c2F)C[C@@H]1N1CCC[C@@H](Nc2cc(Cl)cc(C(F)(F)F)c2)C1=O [Compound I-4],PXR % induction (relative to 10 uM rifampin),[1],67%
same,IC50,[2],0.63 nM
same,IC50,[3],13700 nM
"NC(=O)[C@H]1CCN(c2ncnc(N)c2F)C[C@@H]1N1CCC[C@@H](Nc2cc(F)cc(C(F)(F)F)c2)C1=O [Compound I-5, (3R,3′R,4′S)-1′-(6-amino-5-fluoropyrimidin-4-yl)-3-((3-fluoro-5-(trifluoromethyl)phenyl)amino)-2-oxo-[1,3′-bipiperidine]-4′-carboxamide]",PXR % induction (relative to 10 uM rifampin),[1],90%
same,IC50,[2],1.6 nM
same,observable activity in the hERG assay at 10 uM,"[3]; 10 uM, no IC50 available",no observable activity
NC(=O)[C@H]1CCN(c2ncnc(N)c2F)C[C@@H]1N1CCC[C@@H](Nc2cc(Cl)cc(OC(F)(F)F)c2)C1=O [Compound I-6],IC50,[2],< 1 nM
same,"inhibition at 3 min, 10 µM",[4],< 20%
CN1CCN(C(=O)[C@H]2CCN(c3ncnc(N)c3F)C[C@@H]2N2CCC[C@@H](Nc3cc(Cl)cc(C(F)(F)F)c3)C2=O)CC1 [Compound I-7],IC50,[2],1.2 nM
same,"inhibition at 3 min, 10 µM",[4],65%
"Nc1ncnc(N2CCC[C@@H](N3CCC[C@@H](Nc4cc(Cl)cc(C(F)(F)F)c4)C3=O)C2)c1F [I^C, reference compound]",PXR % induction (relative to 10 uM rifampin),[1],95%
same,IC50,[2],2 nM
same,"inhibition at 3 min, 10 µM",[4],87%
same,IC50,[3],1180 nM
